Results from article PMC10187092 (Emerging Microbes & Infections, 2023).

What was measured:
[1] = target: SARS-CoV-2 3CLpro (wild-type) (Severe acute respiratory syndrome coronavirus 2, UniProt P0DTD1); type: cell-based
SARS-CoV-2 3CLpro = SARS-CoV-2 3CLpro (Severe acute respiratory syndrome coronavirus 2, UniProt P0DTD1); type: cell-based

| Compound | inhibition of 3CLpro [1] | rescue of reporter expression in 3CLpro transfected cells (SARS-CoV-2 3CLpro) | potency in dose-response validation [1] |
| --- | --- | --- | --- |
| O=c1c2ccccc2[se]n1-c1ccccc1 [Ebselen] | no inhibition |  |  |
| Cc1ccc(NC(=O)c2ccc(CN3CCN(C)CC3)cc2)cc1Nc1nc(-c2cccnc2)cs1 [Masitinib] | negative |  |  |
| CCO[C@@H]1OC(=O)C[C@@H]1NC(=O)[C@@H]1CCCN1C(=O)[C@@H](NC(=O)c1ccc(N)c(Cl)c1)C(C)(C)C [Belnacasan] |  | failed to rescue reporter expression |  |
| Ac-DEVD-CHO |  | failed to rescue reporter expression |  |
| Z-FA-FMK |  |  | weak to moderate potency |
| CC(C)(C)NC(=O)N[C@H](C(=O)N1C[C@H]2[C@@H]([C@H]1C(=O)NC(CC1CCC1)C(=O)C(N)=O)C2(C)C)C(C)(C)C (stereo partly drawn) [Boceprevir] |  |  | weak to moderate potency |
